Measured values taken from US8247556B2, “Method for preparing 6-substituted-7-aza-indoles” (Amgen Inc., priority 2005, dated 2012).

Legend:
[1] = biological target: T1, CYP 3A4 (Homo sapiens, UniProt P08684); test: Human Liver Microsome CYP 3A4 Inhibition; format: in vitro ADME; settings: human liver microsomes, midazolam substrate; read-out: inhibited CYP3A4 microsomes, IC50
T1 construct: followed by 222.2 ml of 20 mg/mL HLM (BD Gentest); tissue BD Gentest; host or cells: human liver microsomes
Experimental: Determining the IC-50 for Human Liver Microsome CYP 3A4 Inhibition
Postassium Phosphate Buffer pH 7.4 (39.667 mL) is chilled in an ice bath and added to a 50 ml plastic tube. A 2 mM midazolam solution is prepared. 111.1 ul of 2 mM midazolam is added to the buffer followed by 222.2 ml of 20 mg/mL HLM (BD Gentest). The incubation mixture was gently inverted and equilibrated at 37° C. for 5 min. A stock inhibitor solution is prepared, such as in DMSO. Incubation mixture (801 ul) is added into 96-well, 1.2 mL plastic tubes. Inhibitor is added at various concentrations (e.g. 30 uM to 120 nM). The tubes are sealed and mix by inverting 5 times gently. The incubation mixture containing inhibitor (270 uL) is added by aliquot into wells of a 1 mL, 96-well block (duplicate). The block is placed into a 37° C. water bath and equilibrated for 3 min. 10 mM NADPH (30 ml) is added to all samples. After 5 minutes, the reactions are stopped by adding 300 ml of Quench Solution [0.1% TFA in CH3CN]. 1′-OH-Midazolam-d313C (2 mg/mL 30 uL) is added, the block is gently vortexed then centrifuged at 3000 rpm for 10 minutes at 4° C. 50 μL of supernatant from all samples is added by aliquot into a shorter, 96-well block. The aliquoted supernatants are pooled with other assay(s) and HPLC Grade Water (50 ul) is added to all samples. After covering and shaking by vortex gently for 2 minutes, the solutions were analyzed by LC-MS (API 3000,5% MeOH w/0.1% AcOH to 95% MeOH w/0.1% AcOH). 37 nM ketoconazole is used as a control.

[2] = test system: VEGF-stimulated HUVEC proliferation (Human Umbilical Vein Endothelial cells); test: HUVEC Proliferation Assay; format: cell-based; settings: VEGF 50 ng/mL, 72 h, CyQuant fluorescent dye, read-out: inhibited VEGF-stimulated HUVEC proliferation at a level
In short: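 HUVEC (passage 2–3) were seeded in DMEM+10% FBS for 22 h, then pre-incubated 2–3 h with 5-point, 5-fold compound dilutions (0.25% DMSO). They were then stimulated with VEGF (50 ng/mL final) for 72 h at 37 °C. Proliferation was read by CyQuant fluorescence (485/530 nm) after freeze-thaw, and IC50 came from a 4-parameter fit.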

[3] = biological target: T2, CYP 2D6 (Homo sapiens, UniProt P10635); test: Human Liver Microsome CYP 2D6 Inhibition; format: in vitro ADME; settings: human liver microsomes, bufuralol substrate; read-out: inhibited CYP2D6 microsomes, IC50
T2 construct: followed by 555.6 ml of 20 mg/mL HLM (BD Gentest); tissue BD Gentest; host or cells: human liver microsomes
Experimental: Determining the IC-50 for Human Liver Microsome CYP 2D6 Inhibition
Postassium Phosphate Buffer pH 7.4 (39.333 mL) is chilled in an ice bath and added to a 50 ml plastic tube. A 3.2 mM bufuralol solution is prepared. 111.1 ul of 3.2 mM bufuralol is added to the buffer followed by 555.6 ml of 20 mg/mL HLM (BD Gentest). The incubation mixture was gently inverted and equilibrated at 37° C. for 5 min. A stock inhibitor solution is prepared, such as in DMSO. Incubation mixture (801 ul) is added into 96-well, 1.2 mL plastic tubes. Inhibitor is added at various concentrations (e.g. 30 μM to […]). The tubes are sealed and mix by inverting 5 times gently. The incubation mixture containing inhibitor (270 μL) is added by aliquot into wells of a 1 mL, 96-well block (duplicate). The block is placed into a 37° C. water bath and equilibrated for 3 minutes. 10 mM NADPH (30 ml) is added to all samples. After 5 min, the reactions are stopped by adding 300 ml of Quench Solution [0.1% TFA in CH3CN]. 1′-OH-bufuralol-d9 (750 ng/mL 30 μL) is added, the block is gently vortexed then centrifuged at 3000 rpm for 10 min at 4° C. 50 μL of supernatant from all samples is added by aliquot into a shorter, 96-well block. The aliquoted supernatants are pooled with other assay(s) and HPLC Grade Water (50 μL) is added to all samples. After covering and shaking by vortex gently for 2 minutes, the solutions were analyzed by LC-MS (API 3000, 5% MeOH w/0.1% AcOH to 95% MeOH w/0.1% AcOH). 500 nM quinidine is used as a control.

T2 sequence (P10635 whole entry): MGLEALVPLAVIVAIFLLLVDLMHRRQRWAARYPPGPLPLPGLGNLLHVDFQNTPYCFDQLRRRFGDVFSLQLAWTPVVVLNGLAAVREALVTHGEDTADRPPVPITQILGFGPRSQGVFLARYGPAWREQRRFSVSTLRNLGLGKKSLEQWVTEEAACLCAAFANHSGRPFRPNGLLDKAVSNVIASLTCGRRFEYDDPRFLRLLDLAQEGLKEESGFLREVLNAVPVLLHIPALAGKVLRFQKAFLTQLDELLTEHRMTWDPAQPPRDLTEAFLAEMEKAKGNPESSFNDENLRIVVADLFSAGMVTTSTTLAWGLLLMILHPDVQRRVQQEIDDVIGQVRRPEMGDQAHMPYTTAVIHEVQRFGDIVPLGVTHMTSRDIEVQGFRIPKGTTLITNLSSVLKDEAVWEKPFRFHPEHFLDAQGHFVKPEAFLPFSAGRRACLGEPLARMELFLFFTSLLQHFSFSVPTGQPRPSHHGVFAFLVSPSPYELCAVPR
T1 sequence (P08684 whole entry): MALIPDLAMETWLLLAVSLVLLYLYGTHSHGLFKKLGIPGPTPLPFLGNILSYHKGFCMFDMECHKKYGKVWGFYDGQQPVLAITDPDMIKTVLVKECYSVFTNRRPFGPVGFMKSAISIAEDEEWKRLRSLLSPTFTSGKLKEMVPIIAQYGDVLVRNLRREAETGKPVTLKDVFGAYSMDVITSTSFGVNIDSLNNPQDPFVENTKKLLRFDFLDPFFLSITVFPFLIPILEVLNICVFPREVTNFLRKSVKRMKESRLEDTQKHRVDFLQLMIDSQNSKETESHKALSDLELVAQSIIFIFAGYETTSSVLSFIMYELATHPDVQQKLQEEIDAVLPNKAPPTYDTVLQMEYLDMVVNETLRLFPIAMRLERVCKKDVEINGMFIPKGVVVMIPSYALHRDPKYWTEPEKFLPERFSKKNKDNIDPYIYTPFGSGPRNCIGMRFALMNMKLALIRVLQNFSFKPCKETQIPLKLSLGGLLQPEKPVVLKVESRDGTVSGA

| IC50 [1] [µM] | IC50 [3] [µM] | Structure (SMILES) | IC50 [2] [µM] |
| --- | --- | --- | --- |
| > 20 | > 20 | CC(C)(C)c1ccc(NC(=O)c2cccnc2NCc2ccnc3[nH]ccc23)cc1 [Example 5, N-(4-tert-Butylphenyl)-2-[(1H-pyrrolo[2,3-b]pyridin-4-ylmethyl)amino]nicotinamide] | < 0.5 |
| > 20 | > 20 | CC1(C)CNc2cc(NC(=O)c3cc(F)cnc3NCc3ccnc4[nH]ccc34)ccc21 [Example 130, N-(3,3-Dimethyl-2,3-dihydro-1H-indol-6-yl)-5-fluoro-2-((1H-pyrrolo[2,3-b]pyridin-4-ylmethyl)amino)-3-pyridinecarboxamide] | < 0.5 |
| > 20 | > 20 | CC1(C)CC(=O)Nc2cc(NC(=O)c3cccnc3NCc3ccnc4c3CCN4)ccc21 [Example 30, 2-[(2,3-Dihydro-1H-pyrrolo[2,3-b]pyridin-4-ylmethyl)amino]-N-(4,4-dimethyl-2-oxo-1,2,3,4-tetrahydroquinolin-7-yl)nicotinamide] | – |
| > 20 | > 20 | CC(C)(C)c1ccc(NC(=O)c2cc(F)cnc2NCc2ccnc3[nH]ccc23)cc1 [Example 79, N-(4-(1,1-dimethylethyl)phenyl)-5-fluoro-2-((1H-pyrrolo[2,3-b]pyridin-4-ylmethyl)amino)-3-pyridinecarboxamide] | – |
| > 20 | > 20 | CC1(C)CC(=O)Nc2cc(NC(=O)c3cccnc3NCc3c[nH]c4ncccc34)ccc21 [Example 41, N-(4,4-Dimethyl-2-oxo-1,2,3,4-tetrahydro-7-quinolinyl)-2-((1H-pyrrolo[2,3-b]pyridin-3-ylmethyl)amino)-3-pyridinecarboxamide] | < 0.5 |
| > 20 | > 20 | CC(C)(C)c1ccc(NC(=O)c2cc(F)cnc2NCc2ccnc3[nH]ncc23)cc1 [Example 125, N-(4-(1,1-Dimethylethyl)phenyl)-5-fluoro-2-((1H-pyrazolo[3,4-b]pyridin-4-ylmethyl)amino)-3-pyridinecarboxamide] | < 0.5 |
| 2.7 | 8.7 | CC(C)(C)c1ccc(NC(=O)c2cccnc2NCc2ccncc2)cc1 [N-(4-tert-Butylphenyl)-2-((4-pyridinylmethyl)amino)-3-pyridinecarboxamide, reference compound] | – |
| > 20 | > 20 | Cc1ccc(NC(=O)c2cc(F)cnc2NCc2ccnc3[nH]ccc23)cc1C(F)(F)F [Example 112, 5-fluoro-N-(4-methyl-3-(trifluoromethyl)phenyl)-2-((1H-pyrrolo[2,3-b]pyridin-4-ylmethyl)amino)-3-pyridinecarboxamide] | < 0.5 |
| > 20 | – | CN1CCC[C@H]1COc1cc(NC(=O)c2cccnc2NCc2ccnc3[nH]ccc23)ccc1C(F)(F)C(F)(F)F [Example 65, N-(3-((((2S)-1-methyl-2-pyrrolidinyl)methyl)oxy)-4-(pentafluoroethyl)phenyl)-2-((1H-pyrrolo[2,3-b]pyridin-4-ylmethyl)amino)-3-pyridinecarboxamide] | < 0.5 |
| > 20 | > 20 | CC(C)(C)c1cc(NC(=O)c2cccnc2NCc2ccnc3[nH]ccc23)no1 [Example 49, N-(5-tert-butylisoxazol-3-yl)-2-[(1H-pyrrolo[2,3-b]pyridin-4-ylmethyl)amino]nicotinamide] | < 0.5 |
| > 20 | – | O=C(Nc1cccc(C(O)(C(F)(F)F)C(F)(F)F)c1)c1cccnc1NCc1ccnc2[nH]ccc12 [Example 18, 2-[(1H-Pyrrolo[2,3-b]pyridin-4-ylmethyl)amino]-N-{3-[2,2,2-trifluoro-1-hydroxy-1-(trifluoromethyl)ethyl]phenyl}nicotinamide] | < 0.5 |
| > 20 | > 20 | Cc1nc2cc(NC(=O)c3cccnc3NCc3ccnc4c3CC(=O)N4)ccc2s1 [Example 74, N-(2-methyl-1,3-benzothiazol-5-yl)-2-(((2-oxo-2,3-dihydro-1H-pyrrolo[2,3-b]pyridin-4-yl)methyl)amino)-3-pyridinecarboxamide] | – |
| > 20 | – | O=C(Nc1ccc(C(F)(F)F)c(Cl)c1)c1cc(F)cnc1NCc1ccnc2[nH]ncc12 [Example 127, N-(3-Chloro-4-(trifluoromethyl)phenyl)-5-fluoro-2-((1H-pyrazolo[3,4-b]pyridin-4-ylmethyl)amino)-3-pyridinecarboxamide] | < 0.5 |
| > 20 | > 20 | O=C(Nc1ccc(C(F)(F)F)cc1)c1cccnc1NCc1ccnc2[nH]ccc12 [Example 66, 2-[(1H-Pyrrolo[2,3-b]pyridin-4-ylmethyl)-amino]-N-(4-trifluoromethyl-phenyl)-nicotinamide] | < 0.5 |
| > 20 | > 20 | O=C(Nc1ccc(OC(F)(F)F)cc1)c1cc(F)cnc1NCc1ccnc2[nH]ncc12 [Example 126, 5-Fluoro-2-((1H-pyrazolo[3,4-b]pyridin-4-ylmethyl)amino)-N-(4-((trifluoromethyl)oxy)phenyl)-3-pyridinecarboxamide] | < 0.5 |
| > 20 | > 20 | O=C(Nc1ccc2c(c1)CNCC21CC1)c1cccnc1NCc1ccnc2[nH]ccc12 [Example 10, N-(4-Spiro-1′-cyclopropane-1,2,3,4-tetrahydroisoquinolin-7-yl)-2-[(1H-pyrrolo[2,3-b]pyridin-4-ylmethyl)amino]nicotinamide] | < 0.5 |
| > 20 | > 20 | Cc1cc(NC(=O)c2cc(F)cnc2NCc2ccnc3[nH]ncc23)ccc1C(C)C [Example 121, 5-Fluoro-N-(3-methyl-4-(1-methylethyl)phenyl)-2-((1H-pyrazolo[3,4-b]pyridin-4-ylmethyl)amino)-3-pyridinecarboxamide] | < 0.5 |
| > 20 | – | O=C(Nc1ccc(C(F)(F)F)c(F)c1)c1cc(F)cnc1NCc1ccnc2[nH]ccc12 [Example 107, 5-fluoro-N-(3-fluoro-4-(trifluoromethyl)phenyl)-2-((1H-pyrrolo[2,3-b]pyridin-4-ylmethyl)amino)-3-pyridinecarboxamide] | < 0.5 |
| > 20 | – | CC(C)c1nc2cc(NC(=O)c3cc(F)cnc3NCc3ccnc4[nH]ccc34)ccc2s1 [Example 103, 5-fluoro-N-(2-(1-methylethyl)-1,3-benzothiazol-5-yl)-2-((1H-pyrrolo[2,3-b]pyridin-4-ylmethyl)amino)-3-pyridinecarboxamide] | < 0.5 |
| > 20 | – | O=C(Nc1ccc(C(F)(F)C(F)(F)F)c(OC[C@@H]2CCCN2)c1)c1cccnc1NCc1ccnc2[nH]ccc12 [Example 72, N-(4-(Pentafluoroethyl)-3-(((2S)-2-pyrrolidinylmethyl)oxy)phenyl)-2-((1H-pyrrolo[2,3-b]pyridin-4-ylmethyl)amino)-3-pyridinecarboxamide] | < 0.5 |
| > 20 | – | CCc1nc2cc(NC(=O)c3cc(F)cnc3NCc3ccnc4[nH]ccc34)ccc2o1 [Example 92, N-(2-ethyl-1,3-benzoxazol-5-yl)-5-fluoro-2-((1H-pyrrolo[2,3-b]pyridin-4-ylmethyl)amino)-3-pyridinecarboxamide] | < 0.5 |
